Test results from publication PMC9230201, “Sustained Consumption of a Decaffeinated Green Coffee Nutraceutical Has Limited Effects on Phenolic Metabolism and Bioavailability in Overweight/Obese Subjects” (Nutrients, 2022).
“And” between values parts separate entries of the source, which are not always exact repeats. Identical values can stand only once.

What was measured:
[1] = Plasma pharmacokinetics of phenolic metabolites after intake of the GCPE nutraceutical (LC-MS-QToF); details: for AUC(0-t) / Tmax: 300 mg hydroxycinnamic acids; for AUC(0-t): AUC0–24h; for Tmax: Tmax (h) or Range; for Cmax: mean ± SEM, n = 9
Method: Participants attended the Human Nutrition Unit (HNU) at the Institute of Food Science, Technology and Nutrition (ICTAN-CSIC) on two consecutive days at the beginning of the intervention (week 0) and also on two consecutive days at the end of the study, after consuming daily two doses of the GCPE nutraceutical, providing 600 mg/d phenols, during two months (week 8). On each occasion, on the first visit day (Figure 1), subjects arrived at the HNU after an overnight (12 h) fast and provided a urine sample. A licensed health care professional placed an intravenous catheter in the subjects′ nondominant arm and collected a fasting blood sample (baseline, 0 h). Then, subjects drank the soluble GCPE nutraceutical dissolved in 200 mL of water. Subsequently, blood samples were collected in EDTA-coated tubes at 0.5, 1, 1.5, 2, 3, 4, 6, 8, 10, and 11 h. On the sampling days, volunteers remained at the HNU, where a (poly)phenol-free diet was provided. Half an hour after consuming the nutraceutical, volunteers ate a breakfast consisting of ham, cheese, white bread, and a yogurt. Lunch (paella, bread, and yogurt) and an afternoon snack (muffin and yogurt) were eaten 5 and 9 h, respectively, after consuming the nutraceutical. Water and isotonic beverages were freely available. Volunteers were instructed to eat a (poly)phenol-free dinner that night and to attend the HNU on the next day after a 12 h fast. Then, a final blood sample was obtained from the antecubital vein 24 h after consuming the nutraceutical. The same protocol was followed during visits at the end of the 8-week intervention. On each occasion, two days before each visit to the HNU, subjects consumed a low (poly)phenol diet free of foods containing hydroxycinnamates such as coffee, herbal teas, red wine, artichokes, whole grain cereals, vegetables, fruits and fruit juices, and dried fruits. Only banana, watermelon, cantaloupes, and potatoes were allowed.
(§1) Blood samples were immediately centrifuged (10 min, 3000 rpm, 4 °C) to obtain plasma. […] All biological samples were stored at −80 °C until analysis.
To extract plasma metabolites, 10 µL of 50% (v/v) aqueous formic acid, and 900 µL cold acetonitrile containing 50 µL of 10% (w/v) ascorbic acid were added to 400 µL defrosted plasma. Samples were vortexed and centrifuged (14,000 rpm, 10 min, 4 °C), repeating the extraction and combining the two supernatants, which were reduced to dryness under nitrogen [13]. Dried samples were resuspended in 150 µL of 0.1% aqueous formic acid (containing 10% acetonitrile acidified with 0.1% formic acid), centrifuged (15 min, 14,000 rpm, 4 °C), and the supernatant collected.
A reverse-phase Ascentis Express C18 (15 cm × 3 mm, 2.7 µm) column (Sigma-Aldrich Quimica, Madrid, Spain), preceded by a Supelco 55215-U guard column (3 mm × 5 mm, 2.7 µm), was used for separation. Mobile phase A was 0.1% formic acid in Milli-Q water, and mobile phase B was acetonitrile containing 0.1% formic acid at a 0.3 mL/min flow rate. […] Metabolites were identified based on their retention time using authentic standards when possible.

[2] = Urinary excretion of phenolic metabolites after intake of the GCPE nutraceutical; details: for Cumulative urinary excretion, Total 0–24 h / Urinary excretion: urine; for Cumulative urinary excretion, Total 0–24 h: mean ± SEM, n = 9
Method: Participants attended the Human Nutrition Unit (HNU) at the Institute of Food Science, Technology and Nutrition (ICTAN-CSIC) on two consecutive days at the beginning of the intervention (week 0) and also on two consecutive days at the end of the study, after consuming daily two doses of the GCPE nutraceutical, providing 600 mg/d phenols, during two months (week 8). […] A licensed health care professional placed an intravenous catheter in the subjects′ nondominant arm and collected a fasting blood sample (baseline, 0 h). Then, subjects drank the soluble GCPE nutraceutical dissolved in 200 mL of water. […] On the sampling days, volunteers remained at the HNU, where a (poly)phenol-free diet was provided. Half an hour after consuming the nutraceutical, volunteers ate a breakfast consisting of ham, cheese, white bread, and a yogurt. Lunch (paella, bread, and yogurt) and an afternoon snack (muffin and yogurt) were eaten 5 and 9 h, respectively, after consuming the nutraceutical. Water and isotonic beverages were freely available. […] The same protocol was followed during visits at the end of the 8-week intervention. On each occasion, two days before each visit to the HNU, subjects consumed a low (poly)phenol diet free of foods containing hydroxycinnamates such as coffee, herbal teas, red wine, artichokes, whole grain cereals, vegetables, fruits and fruit juices, and dried fruits. Only banana, watermelon, cantaloupes, and potatoes were allowed.
as §1
To extract plasma metabolites, 10 µL of 50% (v/v) aqueous formic acid, and 900 µL cold acetonitrile containing 50 µL of 10% (w/v) ascorbic acid were added to 400 µL defrosted plasma. Samples were vortexed and centrifuged (14,000 rpm, 10 min, 4 °C), repeating the extraction and combining the two supernatants, which were reduced to dryness under nitrogen [13]. Dried samples were resuspended in 150 µL of 0.1% aqueous formic acid (containing 10% acetonitrile acidified with 0.1% formic acid), centrifuged (15 min, 14,000 rpm, 4 °C), and the supernatant collected. Urine samples were diluted 1:1 with Milli-Q water and centrifuged (14,000 rpm, 20 min, 4 °C) prior to analysis. Phosphate-buffered saline (3 mL) was added to a representative 300 mg sample of thawed feces, homogenized in an ultrasound bath during 10 min, centrifuged (14,000 rpm, 20 min, 4 °C), and the supernatants collected.
Mobile phase A was 0.1% formic acid in Milli-Q water, and mobile phase B was acetonitrile containing 0.1% formic acid at a 0.3 mL/min flow rate. […] Metabolites were identified based on their retention time using authentic standards when possible. […] Urine concentration of excreted metabolites was normalized to the total volume excreted in each studied interval.
Plasma (30 µL), urine (5 µL) and fecal extracts (5 µL) were filtered through 0.45 µm
cellulose-acetate membrane filters and injected into an Agilent 1200 series LC system
ESI-Jet Stream Technology (Agilent Technologies). A reverse-phase Ascentis Express
C18 (15 cm x 3 mm, 2.7 µm) column (Sigma-Aldrich Quimica, Madrid), preceded by a
phase A was 0.1% formic acid in Milli-Q water, and mobile phase B was acetonitrile
containing 0.1% formic acid at a 0.3 mL/min flow rate. The gradient started with 10% B
at 0 min, 30% B at 10 min, 40% B at 15 min, reaching 50% B at 20 min. The starting
gradient was then re-established in 2 min and maintained for 8 min to re-equilibrate the

[3] = human, oral, week 0, first peak where biphasic
[4] = human, oral, week 8, first peak where biphasic
[5] = human, oral, 300 mg, Cmax, week 0, GCPE nutraceutical with 300 mg hydroxycinnamic acids
[6] = human, oral, 300 mg, Cmax, week 8, GCPE nutraceutical with 300 mg hydroxycinnamic acids
[7] = week 0, GCPE nutraceutical with 300 mg hydroxycinnamic acids
[8] = week 0, first peak where biphasic
[9] = week 8, GCPE nutraceutical with 300 mg hydroxycinnamic acids
[10] = week 8, first peak where biphasic

COc1ccc(CCC(=O)O)cc1O [DHiFA, 3-(3′-Hydroxy-4′-methoxyphenyl) propanoic acid]
AUC(0-t) ([1]; human, oral, week 0): 0.5 ± 0.2 µM·h
AUC(0-t) ([1]; human, oral, week 8): 0.6 ± 0.2 µM·h
Tmax [1, 3]: 7 ± 1 h
Tmax [1, 4]: 7 ± 1 h
Cmax [1, 5]: 70 ± 20 nM
Cmax [1, 6]: 70 ± 20 nM
Cumulative urinary excretion, Total 0–24 h ([2]; week 0): 3.7 ± 0.4 µmol
Cumulative urinary excretion, Total 0–24 h ([2]; week 8): 3.2 ± 0.2 µmol
Amount excreted in urine, 0- 3 h ([2]; week 0, interval 0–3 h): 0.26 ± 0.04 µmol
Amount excreted in urine, 3-6 h ([2]; week 0, interval 3–6 h): 0.25 ± 0.08 µmol
Amount excreted in urine, 6-9 h ([2]; week 0, interval 6–9 h): 1.2 ± 0.3 µmol
Amount excreted in urine, 9-11 h ([2]; week 0, interval 9–11 h): 0.8 ± 0.2 µmol
Amount excreted in urine, 11-24 h ([2]; week 0, interval 11–24 h): 1.2 ± 0.09 µmol
Amount excreted in urine, 0- 3 h ([2]; week 8, interval 0–3 h): 0.32 ± 0.07 µmol
Amount excreted in urine, 3-6 h ([2]; week 8, interval 3–6 h): 0.38 ± 0.08 µmol
Amount excreted in urine, 6-9 h ([2]; week 8, interval 6–9 h): 1 ± 0.2 µmol
Amount excreted in urine, 9-11 h ([2]; week 8, interval 9–11 h): 0.7 ± 0.2 µmol
Amount excreted in urine, 11-24 h ([2]; week 8, interval 11–24 h): 1 ± 0.2 µmol

COc1cc(C=CC(=O)O)ccc1OS(=O)(=O)O [FA-4′-sulfate, 3′-Methoxycinnamic acid-4′-sulfate]
AUC0–24h ([1]; week 0): 0.11 ± 0.03 µM/min
Cmax [1, 7]: 17 ± 4 nM
Tmax, second peak ([1]; week 0, biphasic profile): 6.8 ± 0.7 h
Tmax (h) or Range [1, 8]: 0.78 ± 0.09 h
AUC0–24h ([1]; week 8): 0.13 ± 0.02 µM/min
Cmax [1, 9]: 17 ± 4 nM
Tmax, second peak ([1]; week 8, biphasic profile): 7.2 ± 0.6 h
Tmax (h) or Range [1, 10]: 0.56 ± 0.06 h
Urinary excretion ([2]; week 0): 32 µmol/24 h
Cumulative urinary excretion, Total 0–24 h ([2]; week 0): 32 µmol and 32 ± 5 µmol
Urinary excretion ([2]; week 8): 33 µmol/24 h
Cumulative urinary excretion, Total 0–24 h ([2]; week 8): 33 µmol and 33 ± 5 µmol
Amount excreted in urine, 0- 3 h ([2]; week 0, interval 0–3 h): 5 ± 2 µmol
Amount excreted in urine, 3-6 h ([2]; week 0, interval 3–6 h): 3.2 ± 0.9 µmol
Amount excreted in urine, 6-9 h ([2]; week 0, interval 6–9 h): 7 ± 2 µmol
Amount excreted in urine, 9-11 h ([2]; week 0, interval 9–11 h): 3.6 ± 0.7 µmol
Amount excreted in urine, 11-24 h ([2]; week 0, interval 11–24 h): 13 ± 2 µmol
Amount excreted in urine, 0- 3 h ([2]; week 8, interval 0–3 h): 4 ± 2 µmol
Amount excreted in urine, 3-6 h ([2]; week 8, interval 3–6 h): 3.4 ± 0.7 µmol
Amount excreted in urine, 6-9 h ([2]; week 8, interval 6–9 h): 7 ± 1 µmol
Amount excreted in urine, 9-11 h ([2]; week 8, interval 9–11 h): 7 ± 2 µmol
Amount excreted in urine, 11-24 h ([2]; week 8, interval 11–24 h): 11 ± 2 µmol

COc1ccc(CCC(=O)O)cc1OC [Dihydrodimethoxycinnamic acid, 3-(3′,4′-Dimethoxyphenyl)propanoic acid]
AUC(0-t) ([1]; human, oral, week 0): 1.2 ± 0.1 µM·h
AUC(0-t) ([1]; human, oral, week 8): 1.3 ± 0.1 µM·h
Tmax [1, 3]: 4 ± 1 h
Tmax [1, 4]: 10 ± 4 h
Cmax [1, 5]: 110 ± 20 nM
Cmax [1, 6]: 120 ± 10 nM
Cumulative urinary excretion, Total 0–24 h ([2]; week 0): 0.7 ± 0.2 µmol
Cumulative urinary excretion, Total 0–24 h ([2]; week 8): 0.63 ± 0.08 µmol
Amount excreted in urine, 0- 3 h ([2]; week 0, interval 0–3 h): 0.08 ± 0.02 µmol
Amount excreted in urine, 3-6 h ([2]; week 0, interval 3–6 h): 0.08 ± 0.01 µmol
Amount excreted in urine, 6-9 h ([2]; week 0, interval 6–9 h): 0.2 ± 0.1 µmol
Amount excreted in urine, 9-11 h ([2]; week 0, interval 9–11 h): 0.09 ± 0.02 µmol
Amount excreted in urine, 11-24 h ([2]; week 0, interval 11–24 h): 0.27 ± 0.06 µmol
Amount excreted in urine, 0- 3 h ([2]; week 8, interval 0–3 h): 0.08 ± 0.01 µmol
Amount excreted in urine, 3-6 h ([2]; week 8, interval 3–6 h): 0.06 ± 0.01 µmol
Amount excreted in urine, 6-9 h ([2]; week 8, interval 6–9 h): 0.12 ± 0.03 µmol
Amount excreted in urine, 9-11 h ([2]; week 8, interval 9–11 h): 0.12 ± 0.04 µmol
Amount excreted in urine, 11-24 h ([2]; week 8, interval 11–24 h): 0.25 ± 0.05 µmol

COc1ccc(CCC(=O)O)cc1O[C@@H]1O[C@H](C(=O)O)[C@@H](O)[C@H](O)[C@H]1O [DHiFA-3′-glucuronide, 3-(4′-Methoxyphenyl)propanoic acid-3′-glucuronide]
AUC0–24h ([1]; week 0): 0.6 ± 0.4 µM/min
Cmax [1, 7]: 60 ± 20 nM
Tmax (h) or Range [1, 8]: 9.0 ± 0.6 h
AUC0–24h ([1]; week 8): 0.7 ± 0.4 µM/min
Cmax [1, 9]: 70 ± 30 nM
Tmax (h) or Range [1, 10]: 8.1 ± 0.8 h
Cumulative urinary excretion, Total 0–24 h ([2]; week 0): 2.9 ± 0.5 µmol
Cumulative urinary excretion, Total 0–24 h ([2]; week 8): 3.1 ± 0.7 µmol
Amount excreted in urine, 0- 3 h ([2]; week 0, interval 0–3 h): 0.12 ± 0.04 µmol
Amount excreted in urine, 3-6 h ([2]; week 0, interval 3–6 h): 0.16 ± 0.06 µmol
Amount excreted in urine, 6-9 h ([2]; week 0, interval 6–9 h): 1.1 ± 0.4 µmol
Amount excreted in urine, 9-11 h ([2]; week 0, interval 9–11 h): 0.7 ± 0.2 µmol
Amount excreted in urine, 11-24 h ([2]; week 0, interval 11–24 h): 0.8 ± 0.2 µmol
Amount excreted in urine, 0- 3 h ([2]; week 8, interval 0–3 h): 0.3 ± 0.1 µmol
Amount excreted in urine, 3-6 h ([2]; week 8, interval 3–6 h): 0.28 ± 0.07 µmol
Amount excreted in urine, 6-9 h ([2]; week 8, interval 6–9 h): 1.1 ± 0.2 µmol
Amount excreted in urine, 9-11 h ([2]; week 8, interval 9–11 h): 0.8 ± 0.4 µmol
Amount excreted in urine, 11-24 h ([2]; week 8, interval 11–24 h): 0.6 ± 0.3 µmol

COc1cc(CCC(=O)O)ccc1O[C@@H]1O[C@H](C(=O)O)[C@@H](O)[C@H](O)[C@H]1O [DHFA-4′-glucuronide, 3-(3′-Methoxyphenyl)propanoic acid-4′-glucuronide]
AUC0–24h ([1]; week 0): 1.1 ± 0.3 µM/min
Cmax [1, 7]: 130 ± 30 nM
Tmax (h) or Range [1, 8]: 8.7 ± 0.6 h
AUC0–24h ([1]; week 8): 0.8 ± 0.1 µM/min
Cmax [1, 9]: 120 ± 20 nM
Tmax (h) or Range [1, 10]: 8.7 ± 0.6 h
Urinary excretion ([2]; week 0): 5 µmol/24 h
Cumulative urinary excretion, Total 0–24 h ([2]; week 0): 5 ± 1 µmol
Urinary excretion ([2]; week 8): 7 µmol/24 h
Cumulative urinary excretion, Total 0–24 h ([2]; week 8): 7 ± 1 µmol
Amount excreted in urine, 0- 3 h ([2]; week 0, interval 0–3 h): 0.15 ± 0.05 µmol
Amount excreted in urine, 3-6 h ([2]; week 0, interval 3–6 h): 0.16 ± 0.05 µmol
Amount excreted in urine, 6-9 h ([2]; week 0, interval 6–9 h): 1 ± 0.4 µmol
Amount excreted in urine, 9-11 h ([2]; week 0, interval 9–11 h): 0.8 ± 0.1 µmol
Amount excreted in urine, 11-24 h ([2]; week 0, interval 11–24 h): 1.2 ± 0.2 µmol
Amount excreted in urine, 0- 3 h ([2]; week 8, interval 0–3 h): 0.21 ± 0.06 µmol
Amount excreted in urine, 3-6 h ([2]; week 8, interval 3–6 h): 0.34 ± 0.09 µmol
Amount excreted in urine, 6-9 h ([2]; week 8, interval 6–9 h): 1 ± 0.2 µmol
Amount excreted in urine, 9-11 h ([2]; week 8, interval 9–11 h): 0.8 ± 0.2 µmol
Amount excreted in urine, 11-24 h ([2]; week 8, interval 11–24 h): 1 ± 0.3 µmol

O=C(/C=C/c1ccc(O)c(O)c1)OC1[C@H](O)CC(O)(C(=O)O)C[C@H]1O (stereo partly shown) [4-Caffeoylquinic acid]
Cumulative urinary excretion, Total 0–24 h ([2]; week 0): 0.13 ± 0.07 µmol
Cumulative urinary excretion, Total 0–24 h ([2]; week 8): 0.15 ± 0.07 µmol
Amount excreted in urine, 6-9 h ([2]; week 0, interval 6–9 h): 0.03 ± 0.02 µmol
Amount excreted in urine, 9-11 h ([2]; week 0, interval 9–11 h): 0.05 ± 0.04 µmol
Amount excreted in urine, 11-24 h ([2]; week 0, interval 11–24 h): 0.05 ± 0.02 µmol
Amount excreted in urine, 0- 3 h ([2]; week 8, interval 0–3 h): 0.01 ± 0.01 µmol
Amount excreted in urine, 3-6 h ([2]; week 8, interval 3–6 h): 0.008 ± 0.005 µmol
Amount excreted in urine, 6-9 h ([2]; week 8, interval 6–9 h): 0.06 ± 0.03 µmol
Amount excreted in urine, 9-11 h ([2]; week 8, interval 9–11 h): 0.05 ± 0.03 µmol
Amount excreted in urine, 11-24 h ([2]; week 8, interval 11–24 h): 0.02 ± 0.01 µmol
